Measurements taken from patent US10653717B2, “Antibiotic compositions” (priority 2016, dated 2020).
“Also recorded” adds a separate entry of the source. Where two headings read alike, the source gives them in different places.

How the values were obtained:
E. coli DHB4 [1] = assay: E. coli DHB4 growth in micro-well plates, OD600 nm, 16 h; type: cell-based, Escherichia coli
Procedure: The effect of silver nitrate with ebselen in combination on the growth of Gram-negative model bacteria, E. coli, was investigated in the microplates. DHB4 overnight cultures were diluted 1:1000 times in Luria-Bertani (LB) medium, and treated with ionic silver (Ag^+) as a nitrate salt (AgNO3) for 16 h.
E. coli DHB4 cells overnight cultures were diluted 1:1000 times in Luria-Bertani (LB) medium and treated with serial concentrations of AgNO3 and/or ebselen for 16 h. The cell viability was determined by measuring the absorbance at 600 nm. The culture treated with 0.8% (v/v) DMSO was used as a control.
E. coli DHB4 cells were grown until an OD600 nm of 0.4, and treated with serial dilutions of ebselen (0, 2, 4, 8 μM) for 16 h. The cell viability was determined by measuring the absorbance at 600 nm. The culture treated with 0.8% (v/v) DMSO was used as a control.

E. coli DHB4 [2] = assay: ROS production, H2DCF-DA staining, flow cytometry; type: cell-based, Escherichia coli; details: 5 μM Ag^+ alone or 20 μM ebselen alone
Procedure: (§1) The E. coli DHB4 cells were grown till the absorbance at OD600 nm of 0.4 in LB medium, and the bacterial cells were treated with different combinations of ebselen and AgNO3 for 10 min. To analyze the amount of ROS production in the bacteria, cells were harvested by centrifugation at 6,000 rpm for 5 min and thoroughly washed 3 times with PBS, and stained with 5 μM H2DCF-DA for 20 min. After the incubation, cells were spin down and re-suspended in PBS, and the ROS production was quantified by flow cytometry (CyAn adp, Beckman coulter).
as §1, with “silver and antibiotics in” for “different”, “combinations” for “combinations of ebselen and AgNO3”, “spun” for “spin”, “(CyAnadp,” for “(CyAn adp,”

E. coli DHB4 WT = assay: MIC of silver and ebselen on E. coli DHB4 redox phenotypes; type: cell-based, Escherichia coli; details: 24 h; for MIC: Escherichia coli, DHB4WT, read-out: MIC of ebselen in the presence of silver
Procedure: (§2) Since Trx and GSH/Grx are major thiol-dependent systems, investigated were the effects of Ag^+ with ebselen in combination on Trx or GSH system-deficient E. coli redox mutants.
(§3) Serial dilutions of ebselen and AgNO3 were added to the individual wells. The minimum inhibitory concentration (MIC) was determined after 24 h culture at 37° C.

GSH = GSH amount in treated E. coli cell extracts, GR-coupled DTNB reduction; type: cell-based, Escherichia coli
E. coli DHB4 [3] = assay: E. coli growth curves in 15 ml tubes, OD600 nm; type: cell-based, Escherichia coli
Procedure: The large scale growth inhibition of E. coli by Ag^+ with ebselen in combination was also observed in shaking testing 15 ml tubes. […] PI is a membrane-impermeable fluorescent dye that has been widely used to detect permeation of cell membrane and dead cells.
E. coli DHB4 cells were grown in 15 ml tubes until an OD600 nm of 0.4, and treated with 5 μM AgNO3 and serial concentration of ebselen (0, 20, 40, 80 μM) in combination. The survival of untreated E. coli was compared with the antibiotic-treated cells by measuring OD600 nm and counting the colonies. For colony formation assay, cells were harvested at 10 min, 1 h, 2 h, and 4 h by centrifugation at 6,000 rpm for 5 min and thoroughly washed 3 times with PBS. The cells were serially diluted in PBS, and 100 μl cultures were plated on LB plates. The colonies were counted after overnight incubation, and CFU/ml was calculated using the following formula: [(colonies)*(dilution factor)]/(amount plated).

E. coli DHB4 oxyR^− = assay: microbe, parasite or virus in culture; type: cell-based, Escherichia coli; details: for MIC: read-out: MIC of ebselen in the presence of silver
Procedure: as §2
One major function of GSH and Trx systems is to scavenge ROS to keep cellular redox balance and protect against oxidative stress. The inhibition of the Trx system and depletion of GSH may responsible for the elevation of ROS.
as §3

E. coli TrxR = E. coli TrxR (Escherichia coli, UniProt P0A9P4); type: cell-based; design: endogenous in cells; host or cells: E. coli DHB4; details: Ag^+ or ebselen alone
Procedure: E. coli DHB4 cells were grown till the absorbance at OD600 nm, of 0.4 in LB medium, and the bacterial cells were treated with different dilutions of ebselen and AgNO3 for 10 min. Cells were harvested by centrifugation at 6,000 rpm for 5 min and thoroughly washed 3 times with PBS, then cells were re-suspended in lysis buffer (25 mM Tris.HCl, pH 7.5, 100 mM NaCl, 2.5 mM EDTA, 2.5 mM EGTA, 20 mM NaF, 1 mM Na3VO4, 20 mM sodium ß-glycerophosphate, 10 mM sodium pyrophosphate, 0.5% Triton X-100) containing protease inhibitor cocktail and lysed by sonication. The cell lysates were obtained by centrifugation at 13,000 rpm for 20 min and the protein concentration was measured by Lowry protein assay (Bio-Rad DC™).
E. coli DHB4 TrxR activity in cell extracts was measured by a DTNB reduction activity assay.
E. coli DHB4 cells were grown till the absorbance at OD600 nm of 0.4 in LB medium, and the bacterial cells were treated with 80 μM antibiotics and 5 μM AgNO3 for 10 and 60 min, respectively. The cultures treated with 80 μM ebselen and 5 μM AgNO3 were used as the positive control. […] The cell lysates were obtained by centrifugation at 13,000 rpm for 20 min and the protein concentrations were measured by the Lowry protein assay.
E. coli DHB4 TrxR activity in cell extracts was measured by a DTNB reduction activity assay^23.

E. coli Trx = target: T1, E. coli Trx (Escherichia coli, UniProt P0AA25); type: cell-based; details: Ag^+ or ebselen alone
T1 construct: endogenous in cells; host or cells: E. coli DHB4

[4] = 5 μM Ag^+ alone or 20 μM ebselen alone, compared with control
[5] = 40 μM ebselen or 5 μM Ag^+ alone

T1 sequence (P0AA25 2-109): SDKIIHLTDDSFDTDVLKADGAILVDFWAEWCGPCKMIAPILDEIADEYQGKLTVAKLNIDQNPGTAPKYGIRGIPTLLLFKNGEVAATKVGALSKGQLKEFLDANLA
Sequence of E. coli TrxR (P0A9P4 whole entry): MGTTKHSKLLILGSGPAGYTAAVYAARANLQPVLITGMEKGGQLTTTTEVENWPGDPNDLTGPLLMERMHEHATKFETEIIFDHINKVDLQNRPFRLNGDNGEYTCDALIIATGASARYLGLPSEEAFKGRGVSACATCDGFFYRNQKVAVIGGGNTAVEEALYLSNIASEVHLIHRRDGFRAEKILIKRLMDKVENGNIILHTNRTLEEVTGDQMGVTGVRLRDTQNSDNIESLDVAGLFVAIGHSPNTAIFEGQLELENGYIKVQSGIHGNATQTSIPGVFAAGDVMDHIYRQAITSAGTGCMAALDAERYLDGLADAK

O=[N+]([O-])[O-].[Ag+] [silver, silver nitrate]
minimal inhibition concentration (MIC) of Ag^+ (E. coli DHB4 [1]; Ag^+ alone, 16 h treatment): 42 µM | MIC of Ag^+ (E. coli DHB4 [1]; with 2 μM ebselen, 16 h treatment): 4.2 µM | ROS concentrations (E. coli DHB4 [2]): did not change ROS concentrations | MIC of silver in the presence of ebselen (E. coli DHB4 WT; Ebselen 0 μM): 40 µM | MIC of silver in the presence of ebselen (E. coli DHB4 WT; Ebselen 1 μM): 10 µM | MIC of silver in the presence of ebselen (E. coli DHB4 WT; Ebselen 2 μM): 5 µM | MIC of silver in the presence of ebselen (E. coli DHB4 WT; Ebselen 4 μM): 1.25 µM | GSH levels (GSH; [4]): neither 5 μM Ag^+ nor 20 μM ebselen modulated GSH levels | E. coli growth (OD600 nm) (E. coli DHB4 [3]; [5]): did not inhibit bacterial growth | MIC of silver in the presence of ebselen (E. coli DHB4 oxyR^−; Ebselen 0 μM, oxyR^−, 24 h): 20 µM | MIC of silver in the presence of ebselen (E. coli DHB4 oxyR^−; Ebselen 1 μM, oxyR^−, 24 h): 5 µM | MIC of silver in the presence of ebselen (E. coli DHB4 oxyR^−; Ebselen 2 μM, oxyR^−, 24 h): 1.25 µM | MIC of silver in the presence of ebselen (E. coli DHB4 oxyR^−; Ebselen 4 μM, oxyR^−, 24 h): 0.625 µM | TrxR activities in cell extracts (E. coli TrxR): not influenced | Trx activities in cell extracts (E. coli Trx): not influenced

O=c1c2ccccc2[se]n1-c1ccccc1 [ebselen, 2-phenyl-1,2-benzisoselenazol-3(2H)-one]
effect on E. coli growth (E. coli DHB4 [1]; ebselen alone (2, 4, 8 μM), 16 h): no effects on bacterial growth; also recorded: no effect on the growth of E. coli | ROS concentrations (E. coli DHB4 [2]): did not change ROS concentrations | MIC (E. coli DHB4 WT; Silver 0 μM): 80 µM | MIC (E. coli DHB4 WT; Silver 0.625 μM): 8 µM | MIC (E. coli DHB4 WT; Silver 1.25 μM): 4 µM | MIC (E. coli DHB4 WT; Silver 2.5 μM): 4 µM | MIC (E. coli DHB4 WT; Silver 5 μM): 2 µM | MIC (E. coli DHB4 WT; Silver 10 μM): 1 µM | MIC (E. coli DHB4 WT; Silver 20 μM): 0.5 µM | GSH levels (GSH; [4]): neither 5 μM Ag^+ nor 20 μM ebselen modulated GSH levels | GSH levels (GSH; ebselen alone at 80 and 40 μM): reduced GSH levels | E. coli growth (OD600 nm) (E. coli DHB4 [3]; [5]): did not inhibit bacterial growth | E. coli growth (OD600 nm) (E. coli DHB4 [3]; 80 μM ebselen alone, back to normal 12 h post-treatment): could inhibit E. coli growth in first 8 h | MIC (E. coli DHB4 oxyR^−; Escherichia coli, 24 h, Silver 0 μM, oxyR^−, 24 h): 40 µM | MIC (E. coli DHB4 oxyR^−; Escherichia coli, 24 h, Silver 5 μM, oxyR^−, 24 h): 1 µM | MIC (E. coli DHB4 oxyR^−; Escherichia coli, 24 h, Silver 10 μM, oxyR^−, 24 h): 0.5 µM | MIC (E. coli DHB4 oxyR^−; Escherichia coli, 24 h): 4 µM | MIC (E. coli DHB4 oxyR^−): 2 µM | TrxR activities in cell extracts (E. coli TrxR): not influenced | Trx activities in cell extracts (E. coli Trx): not influenced
